Tests used:
[1] = system: Setaria faberi, Amaranthus retroflexus, Chenepodium album, and Stellaria media; test: Test Example 1: pre-emergence application, herbicidal activity; format: in vivo; details: pre-emergence application to soil surface, 25 to 1000 g per 1 hectare, greenhouse, evaluated 21 days after treatment
[2] = system: switchgrass, miscanthus, giant reed, reed canarygrass, blue stem, erianthus, napier grass, and spartina; test: Test Example 1: pre-emergence application, phytotoxicity on biomass crops
Description: Pre-emergence application in switchgrass, miscanthus, giant reed, reed canarygrass, blue stem, erianthus, napier grass and spartina
A field soil is filled into a 32 cm×22 cm plastic case having a depth of 8 cm, seeds of switchgrass, miscanthus, giant reed, reed canarygrass, blue stem, erianthus, napier grass, spartina, Setaria faberi, Amaranthus retroflexus, Chenepodium album, and Stellaria media are seeded thereon, and the seeds are covered with about 0.5 cm of a soil.

[3] = system: Echinochloa crus-galli, Digitaria adscendens, Chenopodium album and Abutilon theophrasti; test: Test Example 2: post-emergence application, herbicidal activity; format: in vivo; details: post-emergence application after 2 weeks of cultivation, 25 to 1000 g per 1 hectare, greenhouse, evaluated 21 days after treatment
Description: (§1) A field soil is filled into a 32 cm×22 cm plastic case having a depth of 8 cm, seeds of switchgrass, miscanthus, giant reed, reed canarygrass, blue stem, erianthus, napier grass, spartina, Echinochloa crus-galli, Digitaria adscendens, Chenopodium album and Abutilon theophrasti are seeded thereon, and the seeds are covered with about 0.5 cm of a soil, and cultivated in a greenhouse for 2 weeks.

[4] = system: switchgrass, miscanthus, giant reed, reed canarygrass, blue stem, erianthus, napier grass, and spartina; test: Test Example 2: post-emergence application, phytotoxicity on biomass crops; format: in vivo
Description: as §1

[5] = pre-emergence application to soil surface, 25 to 1000 g per 1 hectare, greenhouse, evaluated 21 days after treatment
[6] = post-emergence application after 2 weeks of cultivation, 25 to 1000 g per 1 hectare, greenhouse, evaluated 21 days after treatment

Structure (SMILES)	herbicidal activity [1]	phytotoxicity ([2]; in vivo)	herbicidal activity [3]	phytotoxicity ([4]; in vivo)	phytotoxicity [2, 5]	phytotoxicity [4, 6]
Cc1nn(-c2cc(NS(C)(=O)=O)c(Cl)cc2Cl)c(=O)n1C(F)F [sulfentrazone]	high herbicidal activity	without causing significant phytotoxicity	high herbicidal activity	without causing a significant phytotoxicity		
CC(C)N(C)S(=O)(=O)NC(=O)c1cc(-n2c(=O)cc(C(F)(F)F)n(C)c2=O)c(F)cc1Cl [saflufenacil]	high herbicidal activity		high herbicidal activity		without causing significant phytotoxicity	without causing a significant phytotoxicity
CS(=O)(=O)NC(=O)c1cc(Oc2ccc(C(F)(F)F)cc2Cl)ccc1[N+](=O)[O-] [fomesafen]	high herbicidal activity		high herbicidal activity		without causing significant phytotoxicity	
C#CCN1C(=O)COc2cc(F)c(N3C(=O)C4=C(CCCC4)C3=O)cc21 [flumioxazin]	high herbicidal activity		high herbicidal activity		without causing significant phytotoxicity	without causing a significant phytotoxicity
CCOc1cc(Oc2ccc(C(F)(F)F)cc2Cl)ccc1[N+](=O)[O-] [oxyfluorfen]	high herbicidal activity		high herbicidal activity		without causing significant phytotoxicity	without causing a significant phytotoxicity
C#CCN1C(=O)COc2cc(F)c(-n3c(=O)n(C)c(=S)n(C)c3=O)cc21 [compound represented by the formula (I)]	high herbicidal activity	without causing significant phytotoxicity	high herbicidal activity	without causing a significant phytotoxicity		

— patent US20130157860A1, “METHOD OF CONTROLLING A WEED IN A GRAMINEOUS BIOMASS CROP” (SUMITOMO CHEMICAL COMPANY, LIMITED, priority 2011, published 2013)
